# Measured values from patent US20220267272A1, “PYRIDINIUM SALT AND PEST CONTROL AGENT” (Nippon Soda Co., Ltd., priority 2019, published 2022).
# Counter-ions that a name gives are not always drawn. Like-named read-outs stand apart in the source and are kept apart here.
# Assays:
# Plutella xylostella = assay: Efficacy test against Plutella xylostella (cabbage leaf disc); format: in vivo; conditions: foliar, 72 h, 125 ppm by mass, cabbage leaf disc immersed 30 seconds, second-instar larvae, 25° C., humidity 60%, after three days
# Spodoptera litura = assay: Efficacy test against Spodoptera litura (cabbage leaf disc); format: in vivo; conditions: foliar, 144 h
# Method: (§1) 5 parts by mass of a compound according to the present invention, 93.6 parts of dimethylformamide, and 1.4 parts of polyoxyethylene alkyl aryl ether were mixed and dissolved to obtain an emulsion (1) containing 5% by mass of the active ingredient.
# (§2) The emulsion (1) was diluted with water such that the amount of the compound according to the present invention became 125 ppm by mass. A cabbage leaf disc was immersed in the diluted solution for 30 seconds. The cabbage leaf disc was air-dried and then put in a petri dish, followed by leaving five second-instar larvae of Spodoptera litura therein. The petri dish was placed in a thermostatic chamber at a temperature of 25° C. and a humidity of 60%. After six days had passed from leaving the larvae, life or death was assessed and the mortality was calculated. The test was repeated twice.
# Helicoverpa armigera = assay: Efficacy test against Helicoverpa armigera (cabbage leaf disc); format: in vivo; conditions: foliar, 144 h
# Mythimna separata = assay: Efficacy test (2) against Mythimna separata (corn leaf disc); format: in vivo; conditions: foliar, 144 h, 125 ppm by mass, corn leaf disc immersed 30 seconds, second-instar larvae, 25° C., humidity 60%, after six days
# Method: as §1
# as §2, with “corn” for “cabbage”, “was” for “was air-dried and then”, “and” for “followed by leaving”, “Mythimna separata were left” for “Spodoptera litura”
# [1] = 125 ppm by mass, cabbage leaf disc immersed 30 seconds, second-instar larvae, 25° C., humidity 60%, after six days, read-out: mortality
structure (smiles),measurement,setting,value
Cc1cccc[n+]1[N-]C(=O)c1ccc(C2CC2c2ccc(Cl)cc2)cc1 (stereo not shown) [Compound C2-3],melting point,,140 to 144 °C
Cl.O=C(N[n+]1ccccc1)c1ccc(NCc2ccc(OC(F)(F)F)cc2)cc1.[Cl-],melting point,,204 to 206 °C
"CC(C)(C)OC(=O)Nc1ccc(C(=O)[N-][n+]2ccccc2)cc1 [Compound C1-57, (4-((tert-butoxycarbonyl)amino)benzoyl)(pyridin-1-ium-1-yl)amide]",melting point,,251 to 253 °C
O=C([N-][n+]1ccccc1)c1ccc(/C=C/c2ccc(OC(F)(F)F)cc2)cc1 [Compound C2-5],mortality at 125 ppm,Plutella xylostella,≥ 80%
same,mortality at 125 ppm,Spodoptera litura; [1],≥ 80%
"O=C([N-][n+]1ccccc1)c1ccc(SCC(F)(F)C(F)(F)C(F)(F)C(F)(F)C(F)(F)F)cc1 (as salt: salt) [Compound C1-18, 1-(4-((2,2,3,3,4,4,5,5,6,6,6-undecafluorohexyl)thio)benzamide) pyridinium intramolecular salt]",melting point,,132 to 134 °C
"O=C([N-][n+]1ccccc1)c1ccc(Oc2ccc(OC(F)(F)F)cc2)cc1 [Compound C1-8, pyridin-1-ium-1-yl(4-(4-(trifluoromethoxy)phenoxy)benzoyl)amide]",melting point,,111 to 113 °C
O=C([N-][n+]1ccccc1)c1ccc(OC/C=C\Cl)cc1 [Compound C2-7],melting point,,101 to 104 °C
O=C([N-][n+]1ccccc1)c1ccc(C2CC2c2ccc(C(F)(F)F)cc2)cc1 (stereo not shown) [Compound C2-2],mortality at 125 ppm,Spodoptera litura; [1],≥ 80%
same,mortality at 125 ppm,Helicoverpa armigera; [1],≥ 80%
"O=C([N-][n+]1ccccc1)c1ccc(/C=C/C(F)(F)F)cc1 [Compound C1-25, 1-(4-((1E)-3,3,3-trifluoro-1-propen-1-yl)benzamide)pyridinium intramolecular salt]",mortality at 125 ppm,Spodoptera litura; [1],≥ 80%
"O=C([N-][n+]1ccccc1)c1ccc(C(=O)Nc2ccc(OC(F)(F)F)cc2)cc1 [Compound C1-1, pyridin-1-ium-1-yl(4-((4-(trifluoromethoxy)phenyl)carbamoyl)benzoyl)amide]",melting point,,281 to 283 °C
O=C([N-][n+]1ccccc1)c1ccc(C2CC2c2ccc(OC(F)(F)F)cc2)cc1 (stereo not shown) [Compound C2-1],mortality at 125 ppm,Spodoptera litura; [1],≥ 80%
same,mortality at 125 ppm,Helicoverpa armigera; [1],≥ 80%
O=C([N-][n+]1ccccc1)c1ccc(OC/C=C/Cl)cc1 [Compound C2-8],melting point,,161 to 162 °C
"O=C([N-][n+]1ccccc1)c1ccc(/C=C/c2ccc(C(F)(F)F)cc2)cc1 [Compound C1-31, (E)-Pyridin-1-ium-1-yl(4-(4-(trifluoromethyl)styryl)benzoyl)amide]",mortality at 125 ppm,Mythimna separata,≥ 80%
same,mortality at 125 ppm,Plutella xylostella,≥ 80%
same,mortality at 125 ppm,Spodoptera litura; [1],≥ 80%
"O=C([N-][n+]1ccccc1)c1ccc(C#Cc2ccc(C(F)(F)F)cc2)cc1 [Compound C1-29, pyridin-1-ium-1-yl(4-((4-(trifluoromethyl)phenyl)ethynyl)benzoyl) amide]",mortality at 125 ppm,Mythimna separata,≥ 80%
same,mortality at 125 ppm,Plutella xylostella,≥ 80%
same,mortality at 125 ppm,Spodoptera litura; [1],≥ 80%
"O=C([N-][n+]1ccccc1)c1ccc(OC(F)(F)C(F)OC(F)(F)C(F)(F)C(F)(F)F)cc1 (stereo not shown) [Compound C1-11, 1-(4-(1,1,2-trifluoro-2-(perfluoropropoxy)ethoxy)benzamide) pyridinium intramolecular salt]",mortality at 125 ppm,Spodoptera litura,≥ 80%
same,mortality at 125 ppm,Helicoverpa armigera,≥ 80%
CC(C)(C)OC(=O)N(Cc1ccc(OC(F)(F)F)cc1)c1ccc(C(=O)[N-][n+]2ccccc2)cc1 [Compound C2-9],melting point,,183 to 184 °C
"O=C([N-][n+]1ccccc1)c1ccc(/C=N/OCC(F)(F)F)cc1 [Compound C1-5, (E)-pyridin-1-ium-1-yl(4-(((2,2,2-trifluoroethoxy)imino)methyl)benzoyl)amide]",melting point,,142 to 143 °C
O=C([N-][n+]1ccccc1)c1ccc(C2CC2c2ccc(Cl)cc2)cc1 (stereo not shown) [Compound C2-4],mortality at 125 ppm,Mythimna separata,≥ 80%
"O=C([N-][n+]1ccccc1)c1ccc(C(=O)c2ccc(OC(F)(F)F)cc2)cc1 [Compound C1-30, 1-(4-(4-(trifluoromethoxy)benzoyl)benzamide)pyridinium intramolecular salt]",mortality at 125 ppm,Plutella xylostella,≥ 80%
O=C([N-][n+]1ccccc1)c1ccc(NS(=O)(=O)c2ccc(C(F)(F)F)cc2)cc1,melting point,,199 to 203 °C
"O=C([N-][n+]1ccccc1)c1ccc(OCC(F)(F)C(F)(F)C(F)(F)C(F)(F)F)cc1 [Compound C1-19, 1-(4-(2,2,3,3,4,4,5,5,5-nonafluoropentoxy)benzamide)pyridinium intramolecular salt]",mortality at 125 ppm,Spodoptera litura,≥ 80%
O=C([N-][n+]1ccccc1)c1ccc(NC(=O)c2ccc(C(F)(F)F)cc2)cc1,melting point,,287 to 289 °C
"O=C([N-][n+]1ccccc1)c1ccc(Cc2ccc(C(F)(F)F)cc2)cc1 [Compound C1-7, pyridin-1-ium-1-yl(4-(4-(trifluoromethyl)benzyl)benzoyl)amide]",melting point,,180 to 183 °C
